How the values were obtained:
Assay type in all cases: in vivo
Parameters in all cases: key: 0 is no effect; 10 is complete control
[1] = system: barnyardgrass (Echinochloa crus-galli); assay: Test A pre-/postemergence; details: 0 to 10 scale
Protocol: (§1) Seeds of barnyardgrass (Echinochloa crus-galli), crabgrass (Digitaria spp.), morningglory (Ipomoea spp.), and velvetleaf (Abutilon theophrasti) were planted into a sandy loam soil and treated preemergence by soil drench with test chemicals formulated in a non-phytotoxic solvent mixture which includes a surfactant. At the same time, these crop and weed species were also treated postemergence sprayed to runoff, with test chemicals formulated in the same manner. Plants ranged in height from two to eighteen cm and were in the one to two leaf stage for the postemergence treatment. Treated plants and untreated controls were maintained in a greenhouse for approximately eleven days, after which all treated plants were compared to untreated controls and visually evaluated for injury. Plant response ratings, summarized in Table A, are based on a 0 to 10 scale where 0 is no effect and 10 is complete control. A dash (−) response means no test results.

[2] = system: crabgrass (Digitaria spp.); assay: Test A pre-/postemergence; details: 0 to 10 scale
Protocol: as §1

[3] = system: morningglory (Ipomoea spp.); assay: Test A pre-/postemergence; details: 0 to 10 scale
Protocol: as §1

[4] = system: velvetleaf (Abutilon theophrasti); assay: Test A pre-/postemergence; details: 0 to 10 scale
Protocol: as §1

[5] = system: pigweed (Amaranthus retroflexus); assay: Test B pre-/postemergence
Summary of the method: (§2)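 Seeds were planted and sprayed preemergence, while plants at 2 to 18 cm (1- to 4-leaf stage) were sprayed postemergence at the same time, with test chemical in a non-phytotoxic solvent mixture containing surfactant. After twelve to sixteen days in a greenhouse, injury was rated visually against untreated controls on a 0–10 scale.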

[6] = system: giant foxtail (Setaria faberii); assay: Test B pre-/postemergence
Summary of the method: as §2

[7] = system: crabgrass (Digitaria sanguinalis); assay: Test B pre-/postemergence
Summary of the method: as §2

[8] = system: blackgrass (Alopecurus myosuroides); assay: Test B pre-/postemergence
Summary of the method: as §2

[9] = system: sugar beet (Beta vulgaris); assay: Test B pre-/postemergence
Summary of the method: as §2

[10] = system: wheat (Triticum aestivum); assay: Test B pre-/postemergence
Summary of the method: as §2

[11] = system: cocklebur (Xanthium strumarium); assay: Test B pre-/postemergence
Summary of the method: as §2

[12] = system: purple nutsedge (Cyperus rotundus); assay: Test B pre-/postemergence
Summary of the method: as §2

[13] = system: soybean (Glycine max); assay: Test B pre-/postemergence
Summary of the method: as §2

[14] = system: bedstraw (Galium aparine); assay: Test B pre-/postemergence
Summary of the method: as §2

[15] = system: broadleaf signalgrass (Brachiaria decumbens); assay: Test B pre-/postemergence
Summary of the method: as §2

[16] = system: wild oat (Avena fatua); assay: Test B pre-/postemergence
Summary of the method: as §2

[17] = system: rape (Brassica napus); assay: Test B pre-/postemergence
Summary of the method: as §2

[18] = system: momingglory (Ipomoea hederacea); assay: Test B pre-/postemergence
Summary of the method: as §2

[19] = system: corn (Zea mays); assay: Test B pre-/postemergence
Summary of the method: as §2

[20] = system: velvetleaf (Abutilon theophrasti); assay: Test B pre-/postemergence
Summary of the method: as §2

[21] = system: smallflower flatsedge (Cyperus difformis); assay: Test B flood test
Summary of the method: (§3)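 Plants were grown to the 2-leaf stage before treatment with test chemical, then held in a greenhouse for twelve to sixteen days. Injury was visually rated against untreated controls on a 0–10 scale, where 0 is no effect and 10 is complete control.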

[22] = system: duck salad (Heteranthera limosa); assay: Test B flood test
Summary of the method: as §3

[23] = system: rice (Oryza sativa); assay: Test B flood test
Summary of the method: as §3

[24] = system: bamyardgrass (Echinochloa crus-galli); assay: Test B flood test
Summary of the method: as §3

[25] = PRE SOIL DRENCH, Rate 1000 g/ha
[26] = PRE SOIL DRENCH, Rate 2000 g/ha
[27] = postemergence SPRAYED TO RUNOFF, Rate 500 g/ha
[28] = postemergence SPRAYED TO RUNOFF, Rate 1000 g/ha
[29] = Preemergence, Rate 62 g/ha, scale of 0 to 10
[30] = Rate 62 g/ha, Postemergence (flood test)
[31] = Rate 125 g/ha, Postemergence section (flood test species)
[32] = Rate 250 g/ha, Postemergence (flood test species)

## Cc1cnc(-c2ccccc2)nc1Cn1cnc(C(F)(F)F)c1 [Compound 8]
[1]; [25]
  Plant response rating, Barnyardgrass: 4
[1]; [26]
  Plant response rating, Barnyardgrass: 7
[1]; [27]
  Plant response rating, Barnyardgrass: 3
[1]; [28]
  Plant response rating, Barnyardgrass: 3
[2]; [25]
  Plant response rating, Crabgrass: 9
[2]; [26]
  Plant response rating, Crabgrass: 10
[2]; [27]
  Plant response rating, Crabgrass: 8
[2]; [28]
  Plant response rating, Crabgrass: 5
[3]; [25]
  Plant response rating, Morningglory: 9
[3]; [26]
  Plant response rating, Morningglory: 8
[3]; [27]
  Plant response rating, Morningglory: 3
[3]; [28]
  Plant response rating, Morningglory: 7
[4]; [25]
  Plant response rating, Velvetleaf: 2
[4]; [26]
  Plant response rating, Velvetleaf: 3
[4]; [27]
  Plant response rating, Velvetleaf: 1
[4]; [28]
  Plant response rating, Velvetleaf: 2

## N#Cc1ccc(-c2nccc(C(=O)c3cccc(C(F)(F)F)c3)n2)cc1 [Compound 78]
[5]; [29]
  Plant response rating, Redroot pigweed: 0
[5]; Rate 62 g/ha, Postemergence
  Redroot pigweed plant response rating: 0
[5]; Rate 125 g/ha, Postemergence
  Redroot pigweed plant response rating: 0
[5]; Rate 125 g/ha, Preemergence
  Plant response rating, Redroot pigweed: 0
[5]; Rate 250 g/ha, Postemergence
  Plant response rating, Redroot pigweed: 4
[5]; Rate 250 g/ha, Preemergence
  Plant response rating, Redroot pigweed: 0
[6]; [29]
  Plant response rating, Giant foxtail: 0
[6]; Rate 62 g/ha, Postemergence
  Giant foxtail plant response rating: 0
[6]; Rate 125 g/ha, Postemergence
  Giant foxtail plant response rating: 0
[6]; Rate 125 g/ha, Preemergence
  Plant response rating, Giant foxtail: 0
[6]; Rate 250 g/ha, Postemergence
  Plant response rating, Giant foxtail: 0
[6]; Rate 250 g/ha, Preemergence
  Plant response rating, Giant foxtail: 0
[7]; [29]
  Plant response rating, Crabgrass: 0
[7]; Rate 62 g/ha, Postemergence
  Crabgrass plant response rating: 0
[7]; Rate 125 g/ha, Postemergence
  Crabgrass plant response rating: 0
[7]; Rate 125 g/ha, Preemergence
  Plant response rating, Crabgrass: 0
[7]; Rate 250 g/ha, Postemergence
  Plant response rating, Crabgrass: 0
[7]; Rate 250 g/ha, Preemergence
  Plant response rating, Crabgrass: 0
[8]; [29]
  Plant response rating, Blackgrass: 0
[8]; Rate 62 g/ha, Postemergence
  Blackgrass plant response rating: 0
[8]; Rate 125 g/ha, Postemergence
  Blackgrass plant response rating: 0
[8]; Rate 125 g/ha, Preemergence
  Plant response rating, Blackgrass: 0
[8]; Rate 250 g/ha, Postemergence
  Plant response rating, Blackgrass: 1
[8]; Rate 250 g/ha, Preemergence
  Plant response rating, Blackgrass: 0
[9]; [29]
  Plant response rating, Sugarbeets: 0
[9]; Rate 62 g/ha, Postemergence
  Sugarbeets plant response rating: 0
[9]; Rate 125 g/ha, Postemergence
  Sugarbeets plant response rating: 0
[9]; Rate 125 g/ha, Preemergence
  Plant response rating, Sugarbeets: 0
[9]; Rate 250 g/ha, Postemergence
  Plant response rating, Sugarbeets: 0
[9]; Rate 250 g/ha, Preemergence
  Plant response rating, Sugarbeets: 0
[10]; [29]
  Plant response rating, Wheat: 0
[10]; Rate 62 g/ha, Postemergence
  Wheat plant response rating: 0
[10]; Rate 125 g/ha, Postemergence
  Wheat plant response rating: 0
[10]; Rate 125 g/ha, Preemergence
  Plant response rating, Wheat: 0
[10]; Rate 250 g/ha, Postemergence
  Plant response rating, Wheat: 0
[10]; Rate 250 g/ha, Preemergence
  Plant response rating, Wheat: 0
[11]; [29]
  Plant response rating, Cocklebur: 0
[11]; Rate 62 g/ha, Postemergence
  Cocklebur plant response rating: 0
[11]; Rate 125 g/ha, Postemergence
  Cocklebur plant response rating: 0
[11]; Rate 125 g/ha, Preemergence
  Plant response rating, Cocklebur: 0
[11]; Rate 250 g/ha, Postemergence
  Plant response rating, Cocklebur: 0
[11]; Rate 250 g/ha, Preemergence
  Plant response rating, Cocklebur: 0
[12]; [29]
  Plant response rating, Nutsedge: 0
[12]; Rate 62 g/ha, Postemergence
  Nutsedge plant response rating: 0
[12]; Rate 125 g/ha, Postemergence
  Nutsedge plant response rating: 0
[12]; Rate 125 g/ha, Preemergence
  Plant response rating, Nutsedge: 0
[12]; Rate 250 g/ha, Postemergence
  Plant response rating, Nutsedge: 0
[12]; Rate 250 g/ha, Preemergence
  Plant response rating, Nutsedge: 0
[13]; [29]
  Plant response rating, Soybean: 0
[13]; Rate 62 g/ha, Postemergence
  Soybean plant response rating: 0
[13]; Rate 125 g/ha, Postemergence
  Soybean plant response rating: 0
[13]; Rate 125 g/ha, Preemergence
  Plant response rating, Soybean: 0
[13]; Rate 250 g/ha, Postemergence
  Plant response rating, Soybean: 0
[13]; Rate 250 g/ha, Preemergence
  Plant response rating, Soybean: 0
[14]; [29]
  Plant response rating, Bedstraw: 0
[14]; Rate 62 g/ha, Postemergence
  Bedstraw plant response rating: 0
[14]; Rate 125 g/ha, Postemergence
  Bedstraw plant response rating: 0
[14]; Rate 125 g/ha, Preemergence
  Plant response rating, Bedstraw: 0
[14]; Rate 250 g/ha, Postemergence
  Plant response rating, Bedstraw: 0
[14]; Rate 250 g/ha, Preemergence
  Plant response rating, Bedstraw: 0
[15]; Rate 62 g/ha, Postemergence
  B. signalgrass plant response rating: 0
[15]; Rate 62 g/ha, Preemergence
  B. signalgrass plant response rating: 0
[15]; Rate 125 g/ha, Postemergence
  B. signalgrass plant response rating: 0
[15]; Rate 125 g/ha, Preemergence
  Plant response rating, B. signalgrass: 0
[15]; Rate 250 g/ha, Postemergence
  Plant response rating, B. signalgrass: 1
[15]; Rate 250 g/ha, Preemergence
  Plant response rating, B. signalgrass: 0
[16]; [29]
  Plant response rating, Wild oats: 0
[16]; Rate 62 g/ha, Postemergence
  Wild oats plant response rating: 0
[16]; Rate 125 g/ha, Postemergence
  Wild oats plant response rating: 0
[16]; Rate 125 g/ha, Preemergence
  Plant response rating, Wild oats: 0
[16]; Rate 250 g/ha, Postemergence
  Plant response rating, Wild oats: 0
[16]; Rate 250 g/ha, Preemergence
  Plant response rating, Wild oats: 0
[17]; [29]
  Plant response rating, Rape: 0
[17]; Rate 62 g/ha, Postemergence
  Rape plant response rating: 0
[17]; Rate 125 g/ha, Postemergence
  Rape plant response rating: 0
[17]; Rate 125 g/ha, Preemergence
  Plant response rating, Rape: 0
[17]; Rate 250 g/ha, Postemergence
  Plant response rating, Rape: 0
[17]; Rate 250 g/ha, Preemergence
  Plant response rating, Rape: 0
[18]; [29]
  Plant response rating, Morningglory: 0
[18]; Rate 62 g/ha, Postemergence
  Morningglory plant response rating: 0
[18]; Rate 125 g/ha, Postemergence
  Morningglory plant response rating: 0
[18]; Rate 125 g/ha, Preemergence
  Plant response rating, Morningglory: 0
[18]; Rate 250 g/ha, Postemergence
  Plant response rating, Morningglory: 2
[18]; Rate 250 g/ha, Preemergence
  Plant response rating, Morningglory: 0
[19]; [29]
  Plant response rating, Corn: 0
[19]; Rate 62 g/ha, Postemergence
  Corn plant response rating: 0
[19]; Rate 125 g/ha, Postemergence
  Corn plant response rating: 0
[19]; Rate 125 g/ha, Preemergence
  Plant response rating, Corn: 0
[19]; Rate 250 g/ha, Postemergence
  Plant response rating, Corn: 2
[19]; Rate 250 g/ha, Preemergence
  Plant response rating, Corn: 0
[20]; [29]
  Plant response rating, Velvetleaf: 0
[20]; Rate 62 g/ha, Postemergence
  Velvetleaf plant response rating: 0
[20]; Rate 125 g/ha, Postemergence
  Velvetleaf plant response rating: 0
[20]; Rate 125 g/ha, Preemergence
  Plant response rating, Velvetleaf: 0
[20]; Rate 250 g/ha, Postemergence
  Plant response rating, Velvetleaf: 0
[20]; Rate 250 g/ha, Preemergence
  Plant response rating, Velvetleaf: 0
[21]; [30]
  S. Flatsedge plant response rating: 0
[21]; [31]
  S. Flatsedge plant response rating: 0
[21]; [32]
  Plant response rating, S. Flatsedge: 0
[22]; [30]
  Ducksalad plant response rating: 0
[22]; [31]
  Ducksalad plant response rating: 0
[22]; [32]
  Plant response rating, Ducksalad: 0
[23]; [30]
  Rice plant response rating: 0
[23]; [31]
  Rice plant response rating: 0
[23]; [32]
  Plant response rating, Rice: 0
[24]; [30]
  Barnyardgrass plant response rating: 0
[24]; [31]
  Barnyardgrass plant response rating: 0
[24]; [32]
  Plant response rating, Barnyardgrass: 0
